Assay results: PubChem BioAssay (NCI)
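Each compound was tested at five concentrations against cells in 96-well plates for 48 hours. Abbreviation: GI50, concentration required for 50% inhibition of growth. TGI: concentration producing complete growth inhibition.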

What was measured:
Assay in all cases: growth of human tumour cells (NCI), 48 h
BT-549 breast = system: BT-549 breast
SF-539 CNS = system: SF-539 CNS
TK-10 renal = system: TK-10 renal
EKVX NSCLC = system: EKVX NSCLC
HS 578T breast = system: HS 578T breast
SF-268 CNS = system: SF-268 CNS
PC-3 prostate = system: PC-3 prostate
SN12C renal = system: SN12C renal
OVCAR-3 ovarian = system: OVCAR-3 ovarian
OVCAR-8 ovarian = system: OVCAR-8 ovarian

NC(=O)CCC(NC(=O)OCc1ccccc1)C(=O)OCC(=O)c1ccccc1 (stereo not given)
GI50 (BT-549 breast): > 100 µM | TGI (BT-549 breast): > 100 µM | GI50 (SF-539 CNS): > 100 µM | TGI (SF-539 CNS): > 100 µM | GI50 (TK-10 renal): > 100 µM | TGI (TK-10 renal): > 100 µM | GI50 (EKVX NSCLC): > 100 µM | TGI (EKVX NSCLC): > 100 µM | GI50 (HS 578T breast): > 100 µM | TGI (HS 578T breast): > 100 µM | GI50 (SF-268 CNS): > 100 µM | TGI (SF-268 CNS): > 100 µM | GI50 (PC-3 prostate): > 100 µM | TGI (PC-3 prostate): > 100 µM | GI50 (SN12C renal): > 100 µM | TGI (SN12C renal): > 100 µM | GI50 (OVCAR-3 ovarian): > 100 µM | TGI (OVCAR-3 ovarian): > 100 µM

O=C(c1ccccc1)C1C(C(=O)c2ccccc2)N1Cc1ccccc1 (stereo not given)
TGI (BT-549 breast): 72 µM | TGI (OVCAR-8 ovarian): > 100 µM | TGI (TK-10 renal): > 100 µM | TGI (EKVX NSCLC): > 100 µM | TGI (HS 578T breast): > 100 µM | TGI (SF-268 CNS): > 100 µM | TGI (PC-3 prostate): > 100 µM | TGI (SN12C renal): 95.1 µM | TGI (OVCAR-3 ovarian): 99.2 µM

COc1ccc(SC2c3cc(OC)c(OC)cc3Oc3nc(N)c(C#N)c(N)c32)cc1 (stereo not given)
GI50 (BT-549 breast): 1.02 µM | TGI (BT-549 breast): 2.19 µM | GI50 (OVCAR-8 ovarian): 1.69 µM | TGI (OVCAR-8 ovarian): 3.18 µM | GI50 (SF-539 CNS): 1.38 µM | TGI (SF-539 CNS): 2.68 µM | GI50 (TK-10 renal): 1.63 µM | TGI (TK-10 renal): 3.01 µM | GI50 (EKVX NSCLC): 1.74 µM | TGI (EKVX NSCLC): 3.34 µM | GI50 (SF-268 CNS): 1.55 µM | TGI (SF-268 CNS): 3.07 µM | GI50 (PC-3 prostate): 1.16 µM | TGI (PC-3 prostate): 2.49 µM | GI50 (OVCAR-3 ovarian): 1.06 µM | TGI (OVCAR-3 ovarian): 2.31 µM

Cc1nc(C)c(C(=O)Nc2cccc3c2C(=O)NC3=O)cc1C(=O)Nc1cccc2c1C(=O)NC2=O
TGI (OVCAR-8 ovarian): > 100 µM | TGI (SF-539 CNS): > 100 µM | TGI (TK-10 renal): > 100 µM | TGI (EKVX NSCLC): > 100 µM | TGI (SF-268 CNS): > 100 µM | TGI (SN12C renal): > 100 µM | TGI (OVCAR-3 ovarian): > 100 µM

Cn1c2ccccc2c(=Nc2ccccc2)c2c3ccccc3[nH]c21
GI50 (BT-549 breast): 3.15 µM | TGI (BT-549 breast): 7.13 µM | GI50 (OVCAR-8 ovarian): 1.85 µM | TGI (OVCAR-8 ovarian): 10.2 µM | GI50 (SF-539 CNS): 1.17 µM | TGI (SF-539 CNS): 2.46 µM | GI50 (TK-10 renal): 1.03 µM | TGI (TK-10 renal): 2.2 µM | GI50 (EKVX NSCLC): 3.21 µM | TGI (EKVX NSCLC): 8.63 µM | GI50 (HS 578T breast): 1.46 µM | TGI (HS 578T breast): 4.58 µM | GI50 (SF-268 CNS): 0.436 µM | TGI (SF-268 CNS): 2.37 µM | GI50 (PC-3 prostate): 1.69 µM | TGI (PC-3 prostate): 6.2 µM | GI50 (SN12C renal): 1.24 µM | TGI (SN12C renal): 3.11 µM

Nc1nc2c(ncn2C2OC(CO)C(O)C2N)c(=O)[nH]1 (stereo not given)
TGI (OVCAR-8 ovarian): > 100 µM | TGI (SF-539 CNS): > 100 µM | TGI (TK-10 renal): > 100 µM | TGI (SF-268 CNS): > 100 µM | TGI (SN12C renal): > 100 µM | TGI (OVCAR-3 ovarian): > 100 µM

N/C(=N\NS(=O)(=O)c1ccccc1)Oc1ccc(Cl)cc1
TGI (OVCAR-8 ovarian): > 100 µM | TGI (SF-539 CNS): > 100 µM | TGI (TK-10 renal): > 100 µM | TGI (EKVX NSCLC): > 100 µM | TGI (SF-268 CNS): > 100 µM | TGI (SN12C renal): > 100 µM | TGI (OVCAR-3 ovarian): > 100 µM

Oc1ccc2oc3ncc(Cl)c(-c4ccccc4)c3c2c1
GI50 (OVCAR-8 ovarian): > 100 µM | TGI (OVCAR-8 ovarian): > 100 µM | GI50 (SF-539 CNS): > 100 µM | TGI (SF-539 CNS): > 100 µM | GI50 (TK-10 renal): > 100 µM | TGI (TK-10 renal): > 100 µM | GI50 (EKVX NSCLC): > 100 µM | TGI (EKVX NSCLC): > 100 µM | GI50 (HS 578T breast): > 100 µM | TGI (HS 578T breast): > 100 µM | GI50 (SF-268 CNS): > 100 µM | TGI (SF-268 CNS): > 100 µM | GI50 (PC-3 prostate): > 100 µM | TGI (PC-3 prostate): > 100 µM | GI50 (SN12C renal): > 100 µM | TGI (SN12C renal): > 100 µM | GI50 (OVCAR-3 ovarian): > 100 µM | TGI (OVCAR-3 ovarian): > 100 µM

Cc1cnc[nH]c1=O
TGI (OVCAR-8 ovarian): > 100 µM | TGI (TK-10 renal): > 100 µM | TGI (EKVX NSCLC): > 100 µM | TGI (SF-268 CNS): > 100 µM | TGI (SN12C renal): > 100 µM | TGI (OVCAR-3 ovarian): > 100 µM
